Results taken from patent US20020137929A1, “1 - (3-heterocyclylphenyl) isothiourea, -isourea, -guanidine and -amidine herbicidal agents” (Intellectual Property Department, BASF Aktiengesellschaft, priority 1998, published 2002).

Tests used:
[1] = system: ABUTH (Velvetleaf); experiment: Postemergence herbicidal evaluation; format: in vivo, Abutilon theophrasti; conditions: postemergence
Method in brief: (§1)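 Seedlings grown about two weeks were sprayed at 40 psi with compound dispersed in 50/50 acetone/water plus 0.5% TWEEN 20, at about 0.0156 to 0.500 kg/ha. Plants were kept in the greenhouse and scored 4–5 weeks later on a 0–9 visual scale against untreated controls.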

[2] = system: AMBEL (Ragweed, Common); experiment: Postemergence herbicidal evaluation; format: in vivo, Ambrosia artemisifolia; conditions: postemergence
Method in brief: as §1

[3] = system: ECHCG (Barnyardgrass); experiment: Postemergence herbicidal evaluation; format: in vivo, Echinochloa crus-galli; conditions: postemergence
Method in brief: as §1

[4] = system: SETVI (Foxtail, Green); experiment: Postemergence herbicidal evaluation; format: in vivo, Setaria viridis; conditions: postemergence
Method in brief: as §1

[5] = system: GLXMAW (Soybean, Williams); experiment: Postemergence herbicidal evaluation; format: in vivo, Glycine max, (L.) Merr. cv Williams; conditions: postemergence
Method in brief: as §1

[6] = system: ORYSAT (Rice, Tebonnet); experiment: Postemergence herbicidal evaluation; format: in vivo, Oryza sativa, (L.) Tebonnet; conditions: postemergence
Method in brief: as §1

[7] = system: TRZAWR (Wheat, Winter, cv Riband); experiment: Postemergence herbicidal evaluation; format: in vivo, Triticum aestivum; conditions: postemergence
Method in brief: as §1

[8] = system: ABUTH (Velvetleaf); experiment: Preemergence herbicidal evaluation; format: in vivo, Abutilon theophrasti; conditions: rated 4-5 weeks after treatment
Method in brief: (§2)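 Each species is sown separately in potting soil over roughly an inch of soil before any emergence. The soil surface then receives an aqueous acetone spray delivering about 0.0156 to 0.500 kg/ha of compound. After four to five weeks, injury is scored from 0 to 9 relative to a control.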

[9] = system: CASOB (Sicklepod); experiment: Preemergence herbicidal evaluation; format: in vivo, Cassia obtusifolia; conditions: rated 4-5 weeks after treatment
Method in brief: as §2

[10] = system: SETVI (Foxtail, Green); experiment: Preemergence herbicidal evaluation; format: in vivo, Setaria viridis; conditions: rated 4-5 weeks after treatment
Method in brief: as §2

[11] = system: MOOVA (Monochoria); experiment: Preemergence weed control under flooded paddy conditions; format: in vivo, Monochoria vaginalis; conditions: rated 3-4 weeks after treatment
Method in brief: (§3)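 Ratings on a 0-9 visual scale cover stand, vigor, malformation, size, chlorosis and overall appearance relative to a control, taken three to four weeks post-treatment. Application was into flood water over freshly sown silt loam at roughly 0.0313 to 0.500 kg/ha.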

[12] = system: SAGPY (Arrowhead (Pygmaea)); experiment: as above; format: in vivo, Sagittaria pygmaea; conditions: rated 3-4 weeks after treatment
Method in brief: as §3

[13] = system: CYPIR (Rice Flatsedge); experiment: Postemergence weed control under flooded paddy conditions; format: in vivo, Cyperus iria; conditions: postemergence weeds, 3-4 weeks after treatment
Method in brief: (§4)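 Injury ratings (0–9 scale covering stand, vigor, malformation, size, chlorosis and overall appearance versus control) were made three to four weeks after treatment. Test material, about 0.0313 to 0.500 kg/ha a.i. in 50/50 v/v aqueous/acetone, was added to flood water 1.5 to 3 cm deep over 3 to 5 cm weeds and 1.5 to 2.5 leaf rice.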

[14] = system: SAGPY (Arrowhead (Pygmaea)); experiment: as above; format: in vivo, Sagittaria pygmaea; conditions: postemergence weeds, 3-4 weeks after treatment
Method in brief: as §4

CCOC(=O)CN1C(=O)C(CC)SC1=Nc1cc(-n2c(=O)cc(C(F)(F)F)n(C)c2=O)c(F)cc1Cl (stereo not drawn) [Compound 13, Ethyl 2-{{2-chloro-5-[3,6-dihydro-3-methyl-2,6-dioxo-4-(trifluoromethyl)-1(2H)-pyrimidinyl]-4-fluorophenyl}imino}-5-ethyl-4-oxo-3-thiazolidineacetate]
1.0: CASOB preemergence herbicidal rating ([9]; rate 0.1250 kg/ha) | Herbicidal rating CYPIR ([13]; rate 0.2500 kg/ha)
0.5: Herbicidal rating CYPIR ([13]; rate 0.1250 kg/ha)
4.0: SETVI herbicidal rating ([4]; rate 0.0313 kg/ha) | SETVI herbicidal rating ([4]; rate 0.0625 kg/ha)
2.0: ECHCG herbicidal rating ([3]; rate 0.0156 kg/ha) | ECHCG herbicidal rating ([3]; rate 0.0313 kg/ha)
4.5: TRZAWR herbicidal rating ([7]; rate 0.0156 kg/ha) | TRZAWR herbicidal rating ([7]; rate 0.0313 kg/ha) | SETVI preemergence herbicidal rating ([10]; rate 0.0313 kg/ha)
2.5: ORYSAT herbicidal rating ([6]; rate 0.0313 kg/ha) | ORYSAT herbicidal rating ([6]; rate 0.0625 kg/ha) | SETVI preemergence herbicidal rating ([10]; rate 0.0156 kg/ha)
7.5: GLXMAW herbicidal rating ([5]; rate 0.1250 kg/ha) | Herbicidal rating MOOVA ([11]; 0.0156 kg/ha)
3.0: ECHCG herbicidal rating ([3]; rate 0.0625 kg/ha) | ORYSAT herbicidal rating ([6]; rate 0.1250 kg/ha) | CASOB preemergence herbicidal rating ([9]; rate 0.2500 kg/ha)
0.0: SETVI herbicidal rating ([4]; rate 0.0156 kg/ha) | CASOB preemergence herbicidal rating ([9]; rate 0.0156 kg/ha) | CASOB preemergence herbicidal rating ([9]; rate 0.0313 kg/ha) | CASOB preemergence herbicidal rating ([9]; rate 0.0625 kg/ha) | Herbicidal rating SAGPY ([12]; 0.0156 kg/ha) | Herbicidal rating SAGPY ([12]; 0.0313 kg/ha) | Herbicidal rating SAGPY ([12]; 0.0625 kg/ha) | Herbicidal rating SAGPY ([12]; 0.1250 kg/ha) | Herbicidal rating SAGPY ([12]; 0.2500 kg/ha) | Herbicidal rating CYPIR ([13]; rate 0.0313 kg/ha) | Herbicidal rating CYPIR ([13]; rate 0.0625 kg/ha) | Herbicidal rating SAGPY ([14]; rate 0.0313 kg/ha) | Herbicidal rating SAGPY ([14]; rate 0.0625 kg/ha) | Herbicidal rating SAGPY ([14]; rate 0.1250 kg/ha) | Herbicidal rating SAGPY ([14]; rate 0.2500 kg/ha)
1.5: ORYSAT herbicidal rating ([6]; rate 0.0156 kg/ha)
6.0: TRZAWR herbicidal rating ([7]; rate 0.0625 kg/ha) | TRZAWR herbicidal rating ([7]; rate 0.1250 kg/ha) | ABUTH preemergence herbicidal rating ([8]; rate 0.0156 kg/ha)
9.0: ABUTH herbicidal rating ([1]; rate 0.0156 kg/ha) | ABUTH herbicidal rating ([1]; rate 0.0313 kg/ha) | ABUTH herbicidal rating ([1]; rate 0.0625 kg/ha) | ABUTH herbicidal rating ([1]; rate 0.1250 kg/ha) | AMBEL herbicidal rating ([2]; rate 0.0313 kg/ha) | AMBEL herbicidal rating ([2]; rate 0.0625 kg/ha) | AMBEL herbicidal rating ([2]; rate 0.1250 kg/ha) | SETVI herbicidal rating ([4]; rate 0.1250 kg/ha) | ABUTH preemergence herbicidal rating ([8]; rate 0.0313 kg/ha) | ABUTH preemergence herbicidal rating ([8]; rate 0.0625 kg/ha) | ABUTH preemergence herbicidal rating ([8]; rate 0.1250 kg/ha) | ABUTH preemergence herbicidal rating ([8]; rate 0.2500 kg/ha) | SETVI preemergence herbicidal rating ([10]; rate 0.0625 kg/ha) | SETVI preemergence herbicidal rating ([10]; rate 0.1250 kg/ha) | SETVI preemergence herbicidal rating ([10]; rate 0.2500 kg/ha) | Herbicidal rating MOOVA ([11]; 0.0313 kg/ha) | Herbicidal rating MOOVA ([11]; 0.0625 kg/ha) | Herbicidal rating MOOVA ([11]; 0.1250 kg/ha) | Herbicidal rating MOOVA ([11]; 0.2500 kg/ha)
5.0: GLXMAW herbicidal rating ([5]; rate 0.0156 kg/ha)
7.0: AMBEL herbicidal rating ([2]; rate 0.0156 kg/ha) | ECHCG herbicidal rating ([3]; rate 0.1250 kg/ha)
5.5: GLXMAW herbicidal rating ([5]; rate 0.0313 kg/ha) | GLXMAW herbicidal rating ([5]; rate 0.0625 kg/ha)

COC(=O)CN1C(=O)CSC1=Nc1cc(-n2c(=O)cc(C(F)(F)F)n(C)c2=O)c(F)cc1Cl [Compound 17, Methyl 2-{{2-chloro-5-[3,6-dihydro-3-methyl-2,6-dioxo-4-(trifluoromethyl)-1(2H)-pyrimidinyl]-4-fluorophenyl}imino}-4-oxo-3-thiazolidineacetate]
7.3: TRZAWR herbicidal rating ([7]; rate 0.1250 kg/ha)
0.0: ECHCG herbicidal rating ([3]; rate 0.0156 kg/ha) | ECHCG herbicidal rating ([3]; rate 0.0313 kg/ha) | ABUTH preemergence herbicidal rating ([8]; rate 0.0156 kg/ha) | CASOB preemergence herbicidal rating ([9]; rate 0.0156 kg/ha) | CASOB preemergence herbicidal rating ([9]; rate 0.1250 kg/ha) | Herbicidal rating SAGPY ([12]; 0.0313 kg/ha) | Herbicidal rating SAGPY ([12]; 0.0625 kg/ha) | Herbicidal rating CYPIR ([13]; rate 0.0313 kg/ha) | Herbicidal rating CYPIR ([13]; rate 0.0625 kg/ha) | Herbicidal rating SAGPY ([14]; rate 0.0313 kg/ha) | Herbicidal rating SAGPY ([14]; rate 0.0625 kg/ha)
7.5: GLXMAW herbicidal rating ([5]; rate 0.1250 kg/ha)
1.8: ORYSAT herbicidal rating ([6]; rate 0.0156 kg/ha)
0.5: SETVI preemergence herbicidal rating ([10]; rate 0.0156 kg/ha)
0.7: CASOB preemergence herbicidal rating ([9]; rate 0.0313 kg/ha) | CASOB preemergence herbicidal rating ([9]; rate 0.0625 kg/ha)
2.3: SETVI preemergence herbicidal rating ([10]; rate 0.0625 kg/ha)
3.3: TRZAWR herbicidal rating ([7]; rate 0.0156 kg/ha)
5.8: GLXMAW herbicidal rating ([5]; rate 0.0625 kg/ha)
4.3: GLXMAW herbicidal rating ([5]; rate 0.0156 kg/ha)
4.5: TRZAWR herbicidal rating ([7]; rate 0.0313 kg/ha)
5.0: ORYSAT herbicidal rating ([6]; rate 0.1250 kg/ha)
3.0: AMBEL herbicidal rating ([2]; rate 0.0156 kg/ha) | ORYSAT herbicidal rating ([6]; rate 0.0313 kg/ha)
4.0: SETVI herbicidal rating ([4]; rate 0.0625 kg/ha) | ABUTH preemergence herbicidal rating ([8]; rate 0.0313 kg/ha) | Herbicidal rating SAGPY ([12]; 0.1250 kg/ha) | Herbicidal rating SAGPY ([12]; 0.2500 kg/ha) | Herbicidal rating SAGPY ([14]; rate 0.1250 kg/ha) | Herbicidal rating SAGPY ([14]; rate 0.2500 kg/ha)
6.0: AMBEL herbicidal rating ([2]; rate 0.0313 kg/ha) | AMBEL herbicidal rating ([2]; rate 0.0625 kg/ha) | Herbicidal rating CYPIR ([13]; rate 0.1250 kg/ha)
7.0: CASOB preemergence herbicidal rating ([9]; rate 0.5000 kg/ha)
6.7: SETVI preemergence herbicidal rating ([10]; rate 0.1250 kg/ha)
9.0: ABUTH herbicidal rating ([1]; rate 0.0156 kg/ha) | ABUTH herbicidal rating ([1]; rate 0.0313 kg/ha) | ABUTH herbicidal rating ([1]; rate 0.0625 kg/ha) | ABUTH herbicidal rating ([1]; rate 0.1250 kg/ha) | AMBEL herbicidal rating ([2]; rate 0.1250 kg/ha) | ABUTH preemergence herbicidal rating ([8]; rate 0.0625 kg/ha) | ABUTH preemergence herbicidal rating ([8]; rate 0.1250 kg/ha) | ABUTH preemergence herbicidal rating ([8]; rate 0.2500 kg/ha) | ABUTH preemergence herbicidal rating ([8]; rate 0.5000 kg/ha) | SETVI preemergence herbicidal rating ([10]; rate 0.2500 kg/ha) | SETVI preemergence herbicidal rating ([10]; rate 0.5000 kg/ha) | Herbicidal rating MOOVA ([11]; 0.0313 kg/ha) | Herbicidal rating MOOVA ([11]; 0.0625 kg/ha) | Herbicidal rating MOOVA ([11]; 0.1250 kg/ha) | Herbicidal rating MOOVA ([11]; 0.2500 kg/ha) | Herbicidal rating CYPIR ([13]; rate 0.2500 kg/ha)
3.5: ORYSAT herbicidal rating ([6]; rate 0.0625 kg/ha)
8.0: ECHCG herbicidal rating ([3]; rate 0.1250 kg/ha)
3.7: CASOB preemergence herbicidal rating ([9]; rate 0.2500 kg/ha)
2.5: ECHCG herbicidal rating ([3]; rate 0.0625 kg/ha) | SETVI herbicidal rating ([4]; rate 0.0313 kg/ha)
5.5: SETVI herbicidal rating ([4]; rate 0.1250 kg/ha) | GLXMAW herbicidal rating ([5]; rate 0.0313 kg/ha) | TRZAWR herbicidal rating ([7]; rate 0.0625 kg/ha)
1.3: SETVI preemergence herbicidal rating ([10]; rate 0.0313 kg/ha)
2.0: SETVI herbicidal rating ([4]; rate 0.0156 kg/ha)
